# Data published in patent US20140113898A1, “BISARYLSULFONE AND DIALKYLARYLSULFONE COMPOUNDS AS CALCIUM CHANNEL BLOCKERS” (Zalicus Pharmaceuticals Ltd., priority 2010, published 2014).
# pIC50: −log10 of the molar value.
# Molecular target: T1, CaV2.2 (Homo sapiens, UniProt Q00975)
# T1 construct: expressed in transfected cells; host or cells: unnamed doxycycline-inducible cell line
# Test: High-throughput CaV2.2/Kir2.3 FLIPR fluorescent assay
# Type: cell-based
# Details: FLIPR data CaV2.2 (nM), Table 5; Fluo-4 FLIPR; closed or inactivated state not stated
# Procedure: Cells were plated in 384-well, clear-bottom, black-walled, poly-D-lysine coated plates (Becton Dickinson, Franklin Lake, N.J.) 2 days prior to use in the FLIPR assay. 100 μL of cells (1.4×10^6 cell/mL) containing doxycyline (Sigma-Aldrich, 1.5 μg/mL; to induce channel expression) were added to each well using a Multidrop (Thermo Scientific, Waltham, Mass.) and were maintained in 5% CO2 incubator at 37° C. On the morning of the assay, cells were transferred to a 5% CO2 incubator at 29° C.
# Cells were washed with a wash buffer containing (in mM): 118 NaCl, 18.4 HEPES, 11.7 D-glucose, 2 CaCl2, 0.5 MgSO4, 4.7 KCl, 1.2 KH2PO4, pH adjusted to 7.2 with NaOH. 4.4 μM of the fluorescent indicator dye, Fluo-4 (Invitrogen), prepared in pluronic acid (Sigma-Aldrich), was loaded into the wells and incubated for 45 minutes at 29° C. in 5% CO2. Cells were then rinsed with either a 2 mM KCl closed-state buffer (in mM: 138.5 NaCl, 10 HEPES, 10 D-glucose, 1 CaCl2, and 2 KCl, with the pH adjusted to 7.4 with NaOH) when performing the closed-state assay or 12.5 mM KCl inactivated-state buffer (in mM: 128 NaCl, 10 HEPES, 10 D-glucose, 1 CaCl2, and 12.5 mM KCl, with the pH adjusted to 7.4 with NaOH) when performing the inactivated-state assay.
# Calcium entry was evoked with an addition of 130 mM KCl stimulation buffer (in mM: 10.5 NaCl, 10 HEPES, 10 D-glucose, 1 CaCl2, and 130 KCl, with the pH adjusted to 7.4 with NaOH) for both the closed-state or inactivated-state assay. A change in the Fluo-4 fluorescence signal was assessed using FLIPR^TETRA™ instrument (Molecular Devices, Sunnyvale, Calif.) for 3 minutes following the elevation of extracellular KCl using an illumination wavelength of 470-495 nm with emissions recorded at 515-575 nm.
# Concentration-dependent response curves were obtained by comparing the fluorescence signal in the presence of compound and fitted with a logistic function (1) to obtain the concentration that inhibited 50% (IC50) of the RLU signal using OriginPro v.7.5 software (OriginLab, Northampton, Mass.).
# To assess the quality of the FLIPR assays the Z-factor (2) was used to quantify the suitability of the assay conditions using the following equation: […]
# Data are expressed as mean and standard deviation (SD).
# T1 sequence (Q00975 whole entry): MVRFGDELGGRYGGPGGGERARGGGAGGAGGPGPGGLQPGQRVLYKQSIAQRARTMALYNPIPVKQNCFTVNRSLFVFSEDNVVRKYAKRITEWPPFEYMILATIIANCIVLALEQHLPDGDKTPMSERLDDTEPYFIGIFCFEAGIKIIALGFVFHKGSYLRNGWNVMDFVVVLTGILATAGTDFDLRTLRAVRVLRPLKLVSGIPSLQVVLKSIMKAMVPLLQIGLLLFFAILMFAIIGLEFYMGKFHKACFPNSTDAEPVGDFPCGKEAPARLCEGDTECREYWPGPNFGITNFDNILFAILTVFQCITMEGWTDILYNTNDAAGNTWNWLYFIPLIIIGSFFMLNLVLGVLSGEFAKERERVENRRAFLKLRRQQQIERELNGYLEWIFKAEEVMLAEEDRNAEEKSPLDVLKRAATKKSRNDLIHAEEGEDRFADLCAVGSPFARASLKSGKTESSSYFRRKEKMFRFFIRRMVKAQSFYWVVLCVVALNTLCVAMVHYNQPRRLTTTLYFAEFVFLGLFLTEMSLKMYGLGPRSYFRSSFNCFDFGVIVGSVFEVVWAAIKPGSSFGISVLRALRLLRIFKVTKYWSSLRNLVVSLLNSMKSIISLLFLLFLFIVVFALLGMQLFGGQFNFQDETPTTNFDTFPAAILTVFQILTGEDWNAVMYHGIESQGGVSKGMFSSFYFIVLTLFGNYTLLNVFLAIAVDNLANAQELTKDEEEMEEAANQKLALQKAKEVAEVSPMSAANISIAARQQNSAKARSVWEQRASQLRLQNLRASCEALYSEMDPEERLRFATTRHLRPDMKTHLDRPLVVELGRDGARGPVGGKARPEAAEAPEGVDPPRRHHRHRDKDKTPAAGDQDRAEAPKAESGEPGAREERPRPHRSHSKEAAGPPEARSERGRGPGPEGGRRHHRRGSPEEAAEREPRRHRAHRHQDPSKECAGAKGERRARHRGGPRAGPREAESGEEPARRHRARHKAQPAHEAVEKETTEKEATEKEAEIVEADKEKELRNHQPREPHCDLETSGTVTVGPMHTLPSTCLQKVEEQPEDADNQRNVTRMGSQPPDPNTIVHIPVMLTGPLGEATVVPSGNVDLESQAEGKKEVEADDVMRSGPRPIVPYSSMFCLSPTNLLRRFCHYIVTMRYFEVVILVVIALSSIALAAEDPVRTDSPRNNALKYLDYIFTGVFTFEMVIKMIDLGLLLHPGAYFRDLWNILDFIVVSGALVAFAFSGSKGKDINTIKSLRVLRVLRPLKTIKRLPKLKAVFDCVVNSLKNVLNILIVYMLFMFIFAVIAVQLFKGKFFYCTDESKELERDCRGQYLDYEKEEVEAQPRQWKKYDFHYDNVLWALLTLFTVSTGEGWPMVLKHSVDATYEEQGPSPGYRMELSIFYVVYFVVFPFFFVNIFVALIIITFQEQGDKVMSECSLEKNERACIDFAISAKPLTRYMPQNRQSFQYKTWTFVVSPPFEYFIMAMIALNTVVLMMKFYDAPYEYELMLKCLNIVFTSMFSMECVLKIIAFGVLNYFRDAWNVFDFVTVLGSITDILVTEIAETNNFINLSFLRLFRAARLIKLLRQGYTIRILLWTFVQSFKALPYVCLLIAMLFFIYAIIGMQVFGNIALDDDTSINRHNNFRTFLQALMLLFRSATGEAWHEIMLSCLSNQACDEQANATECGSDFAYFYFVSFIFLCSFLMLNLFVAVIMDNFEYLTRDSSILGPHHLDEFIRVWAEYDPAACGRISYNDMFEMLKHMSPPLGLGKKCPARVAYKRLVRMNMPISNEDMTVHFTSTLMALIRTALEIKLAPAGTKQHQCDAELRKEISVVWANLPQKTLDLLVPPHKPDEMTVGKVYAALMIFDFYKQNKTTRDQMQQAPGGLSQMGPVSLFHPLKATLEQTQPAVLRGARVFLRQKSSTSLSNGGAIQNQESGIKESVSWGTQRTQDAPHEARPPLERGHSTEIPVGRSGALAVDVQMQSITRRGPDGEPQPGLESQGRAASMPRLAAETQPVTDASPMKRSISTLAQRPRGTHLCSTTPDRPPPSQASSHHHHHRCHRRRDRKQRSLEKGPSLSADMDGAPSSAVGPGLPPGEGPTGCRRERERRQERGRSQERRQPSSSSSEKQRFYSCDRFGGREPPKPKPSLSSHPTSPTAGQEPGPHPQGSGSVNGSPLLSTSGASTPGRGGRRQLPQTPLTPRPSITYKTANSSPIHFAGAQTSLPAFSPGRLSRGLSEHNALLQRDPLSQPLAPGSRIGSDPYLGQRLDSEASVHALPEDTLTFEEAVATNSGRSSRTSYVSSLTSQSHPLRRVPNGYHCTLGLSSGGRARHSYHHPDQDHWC
# T1 sequence (P54284 whole entry partner): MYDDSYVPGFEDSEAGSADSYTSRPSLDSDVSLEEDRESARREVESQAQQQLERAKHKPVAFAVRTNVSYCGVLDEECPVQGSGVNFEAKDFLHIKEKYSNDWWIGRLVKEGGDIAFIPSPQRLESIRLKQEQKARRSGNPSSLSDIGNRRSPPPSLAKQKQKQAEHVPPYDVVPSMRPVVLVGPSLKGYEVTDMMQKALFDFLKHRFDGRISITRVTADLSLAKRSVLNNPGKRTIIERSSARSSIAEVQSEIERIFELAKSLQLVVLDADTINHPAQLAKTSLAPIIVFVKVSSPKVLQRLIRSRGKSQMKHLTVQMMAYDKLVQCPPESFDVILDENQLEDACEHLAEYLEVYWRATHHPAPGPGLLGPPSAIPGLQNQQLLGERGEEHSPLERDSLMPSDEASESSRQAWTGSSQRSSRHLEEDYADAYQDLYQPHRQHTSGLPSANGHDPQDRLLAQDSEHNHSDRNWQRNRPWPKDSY
# T1 sequence (P54289 25-946 partner limits assumed): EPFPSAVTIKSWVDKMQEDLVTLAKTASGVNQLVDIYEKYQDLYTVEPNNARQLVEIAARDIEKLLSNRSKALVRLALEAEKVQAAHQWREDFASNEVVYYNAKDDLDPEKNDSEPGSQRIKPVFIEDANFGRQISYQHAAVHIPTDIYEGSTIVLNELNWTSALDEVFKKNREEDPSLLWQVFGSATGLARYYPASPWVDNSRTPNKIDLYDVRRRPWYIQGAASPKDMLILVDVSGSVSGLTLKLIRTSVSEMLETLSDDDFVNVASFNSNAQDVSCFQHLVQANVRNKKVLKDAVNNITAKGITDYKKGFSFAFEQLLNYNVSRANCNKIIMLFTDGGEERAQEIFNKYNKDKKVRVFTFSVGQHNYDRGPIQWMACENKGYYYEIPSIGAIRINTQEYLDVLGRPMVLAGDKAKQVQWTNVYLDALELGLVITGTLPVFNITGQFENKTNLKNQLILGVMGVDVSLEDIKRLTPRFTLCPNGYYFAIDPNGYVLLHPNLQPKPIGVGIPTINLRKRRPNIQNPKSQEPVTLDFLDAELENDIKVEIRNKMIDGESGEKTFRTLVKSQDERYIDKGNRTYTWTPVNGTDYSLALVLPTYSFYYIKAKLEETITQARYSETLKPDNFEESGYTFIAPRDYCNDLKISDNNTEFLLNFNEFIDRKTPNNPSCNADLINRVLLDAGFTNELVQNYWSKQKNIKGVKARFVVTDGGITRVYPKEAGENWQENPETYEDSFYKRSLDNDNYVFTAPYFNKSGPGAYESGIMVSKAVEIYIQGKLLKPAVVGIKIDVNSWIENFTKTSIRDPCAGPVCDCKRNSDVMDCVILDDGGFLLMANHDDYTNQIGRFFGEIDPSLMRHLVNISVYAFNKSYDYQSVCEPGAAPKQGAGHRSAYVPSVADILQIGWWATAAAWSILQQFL
# T1 sequence (P54289 947-1103 partner limits assumed): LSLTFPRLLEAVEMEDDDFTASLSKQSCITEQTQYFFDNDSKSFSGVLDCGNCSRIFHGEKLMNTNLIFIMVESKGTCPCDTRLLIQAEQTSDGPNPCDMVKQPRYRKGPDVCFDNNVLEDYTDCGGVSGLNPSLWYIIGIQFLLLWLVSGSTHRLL
row,SMILES,IC50 [nM]
1,"CC(C)(C(=O)NCCC(F)(F)F)S(=O)(=O)c1cccc(C(F)(F)F)c1 [Compound 125, 2-methyl-2-((3-(trifluoromethyl)phenyl)sulfonyl)-N-(3,3,3-trifluoropropyl)propanamide]",10000

# Same assay, conditions: Table 4; Fluo-4 FLIPR; closed or inactivated state not stated; read-out: FLIPR data CaV2.2
row,pIC50,SMILES
1,5.59,"O=C(NCc1ccc(S(=O)(=O)c2cccc(C(F)(F)F)c2)cn1)[C@H]1CCCN1 [Compound 108, (R)-N-((5-((3-(trifluoromethyl)phenyl)sulfonyl)pyridin-2-yl)methyl)pyrrolidine-2-carboxamide]"
2,5.66,"CS(=O)(=O)c1nc(C(F)(F)F)ccc1C(=O)NCc1cc(S(=O)(=O)c2cccc(C(F)(F)F)c2)ccn1 [Compound 110, 2-(methylsulfonyl)-6-(trifluoromethyl)-N-((4-((3-(trifluoromethyl)phenyl)sulfonyl)pyridin-2-yl)methyl)nicotinamide]"
3,5.99,"O=C(NCc1cc(S(=O)(=O)c2cccc(C(F)(F)F)c2)ccn1)c1ccnn1CC(F)(F)F [Compound 112, 1-(2,2,2-trifluoroethyl)-N-((4-((3-(trifluoromethyl)phenyl)sulfonyl)pyridin-2-yl)methyl)-1H-pyrazole-5-carboxamide]"
4,5.86,"O=C(NCc1cc(S(=O)(=O)c2cccc(C(F)(F)F)c2)ccn1)c1ccnc(C(F)(F)F)n1 [Compound 113, 2-(trifluoromethyl)-N-((4-((3-(trifluoromethyl)phenyl)sulfonyl)pyridin-2-yl)methyl)pyrimidine-4-carboxamide]"
5,5.48,"O=C(CCC(F)(F)F)NCc1cc(S(=O)(=O)c2cccc(C(F)(F)F)c2)ccn1 [Compound 114, 4,4,4-trifluoro-N-((4-((3-(trifluoromethyl)phenyl)sulfonyl)pyridin-2-yl)methyl)butanamide]"
6,5.93,"O=C(NCc1cc(S(=O)(=O)c2cccc(C(F)(F)F)c2)ccn1)c1cn2cc(C(F)(F)F)ccc2n1 [Compound 116, 6-(trifluoromethyl)-N-((4-((3-(trifluoromethyl)phenyl)sulfonyl)pyridin-2-yl)methyl)imidazo[1,2-a]pyridine-2-carboxamide]"

# Same assay, conditions: Table 5; Fluo-4 FLIPR; closed or inactivated state not stated; read-out: FLIPR data CaV2.2
row,pIC50,SMILES
1,5.37,"CC(C)(NC(=O)C(C)(C)S(=O)(=O)c1cccc(C(F)(F)F)c1)c1ccccc1 [Compound 126, 2-methyl-N-(2-phenylpropan-2-yl)-2-((3-(trifluoromethyl)phenyl)sulfonyl)propanamide]"
2,5.91,"COc1cc(CCNC(=O)C(C)(C)S(=O)(=O)c2cccc(C(F)(F)F)c2)ccc1O [Compound 139, N-(4-hydroxy-3-methoxyphenethyl)-2-methyl-2-((3-(trifluoromethyl)phenyl)sulfonyl)propanamide]"
3,5.96,"CC(C)(C(=O)NCC(O)c1ccccc1Cl)S(=O)(=O)c1cccc(C(F)(F)F)c1 (stereo not drawn) [Compound 141, N-(2-(2-chlorophenyl)-2-hydroxyethyl)-2-methyl-2-((3-(trifluoromethyl)phenyl)sulfonyl)propanamide]"
4,6.36,"COc1cc(OC)cc(C(O)CNC(=O)C(C)(C)S(=O)(=O)c2cccc(C(F)(F)F)c2)c1 (stereo not drawn) [Compound 142, N-(2-(3,5-dimethoxyphenyl)-2-hydroxyethyl)-2-methyl-2-((3-(trifluoromethyl)phenyl)sulfonyl)propanamide]"
5,5.00,"CC(C)(C(=O)Nc1ccc(Oc2ccncc2)cc1)S(=O)(=O)c1cccc(C(F)(F)F)c1 [Compound 143, 2-methyl-N-(4-(pyridin-4-yloxy)phenyl)-2-((3-(trifluoromethyl)phenyl)sulfonyl)propanamide]"
6,5.00,"CC(C)(C(=O)N1Cc2ccncc2C1)S(=O)(=O)c1cccc(C(F)(F)F)c1 [Compound 148, 2-methyl-1-(1H-pyrrolo[3,4-c]pyridin-2(3H)-yl)-2-((3-(trifluoromethyl)phenyl)sulfonyl)propan-1-one]"
7,5.08,"CC(C)(CC(=O)NCCC(F)(F)F)S(=O)(=O)c1cccc(C(F)(F)F)c1 [Compound 151, 3-methyl-3-((3-(trifluoromethyl)phenyl)sulfonyl)-N-(3,3,3-trifluoropropyl)butanamide]"
8,5.37,"CC(C)(NC(=O)CC(C)(C)S(=O)(=O)c1cccc(C(F)(F)F)c1)c1ccccc1 [Compound 152, 3-methyl-N-(2-phenylpropan-2-yl)-3-((3-(trifluoromethyl)phenyl)sulfonyl)butanamide]"
9,5.91,"COc1cc(CCNC(=O)CC(C)(C)S(=O)(=O)c2cccc(C(F)(F)F)c2)ccc1O [Compound 153, N-(4-hydroxy-3-methoxyphenetnyl)-3-methyl-3-((3-(trifluoromethyl)phenyl)sulfonyl)butanamide]"
10,5.87,"CC(C)(CNC(=O)c1ccc(C(F)(F)F)nc1S(C)(=O)=O)S(=O)(=O)c1cccc(C(F)(F)F)c1 [Compound 155, N-(2-methyl-2-((3-(trifluoromethyl)phenyl)sulfonyl)propyl)-2-(methylsulfonyl)-6-(trifluoromethyl)nicotinamide]"
11,5.97,"CC(C)(CNC(=O)c1ncc(C(F)(F)F)cc1S(C)(=O)=O)S(=O)(=O)c1cccc(C(F)(F)F)c1 [Compound 156, N-(2-methyl-2-((3-(trifluoromethyl)phenyl)sulfonyl)propyl)-3-(methylsulfonyl)-5-(trifluoromethyl)picolinamide]"
12,5.27,"CC(C)(CNC(=O)c1ccc(F)cc1)S(=O)(=O)c1cccc(C(F)(F)F)c1 [Compound 157, 4-fluoro-N-(2-methyl-2-((3-(trifluoromethyl)phenyl)sulfonyl)propyl)benzamide]"
13,5.53,"CC(C)(CNC(=O)c1ccc(S(C)(=O)=O)cc1Cl)S(=O)(=O)c1cccc(C(F)(F)F)c1 [Compound 158, 2-chloro-N-(2-methyl-2-((3-(trifluoromethyl)phenyl)sulfonyl)propyl)-4-(methylsulfonyl)benzamide]"
14,5.88,"CC(C)(CNC(=O)c1ccc(F)cc1Cl)S(=O)(=O)c1cccc(C(F)(F)F)c1 [Compound 159, 2-chloro-4-fluoro-N-(2-methyl-2-((3-(trifluoromethyl)phenyl)sulfonyl)propyl)benzamide]"
15,5.58,"CCOc1ncccc1C(=O)NCC(C)(C)S(=O)(=O)c1cccc(C(F)(F)F)c1 [Compound 162, 2-ethoxy-N-(2-methyl-2-((3-(trifluoromethyl)phenyl)sulfonyl)propyl)nicotinamide]"
16,5.65,"CC(C)(C)C(=O)Nc1ncccc1C(=O)NCC(C)(C)S(=O)(=O)c1cccc(C(F)(F)F)c1 [Compound 163, N-(2-methyl-2-((3-(trifluoromethyl)phenyl)sulfonyl)propyl)-2-pivalamidonicotinamide]"
17,5.33,"CC(C)(CNC(=O)c1cnc(C(F)(F)F)nc1)S(=O)(=O)c1cccc(C(F)(F)F)c1 [Compound 164, N-(2-methyl-2-((3-(trifluoromethyl)phenyl)sulfonyl)propyl)-2-(trifluoromethyl)pyrimidine-5-carboxamide]"
18,5.85,"Cc1cc(C(=O)NCC(C)(C)S(=O)(=O)c2cccc(C(F)(F)F)c2)cc(C)c1O [Compound 167, 4-hydroxy-3,5-dimethyl-N-(2-methyl-2-((3-(trifluoromethyl)phenyl)sulfonyl)propyl)benzamide]"
19,5.87,"Cc1ccc(C(=O)NCC(C)(C)S(=O)(=O)c2cccc(C(F)(F)F)c2)c(C)c1 [Compound 169, 2,4-dimethyl-N-(2-methyl-2-((3-(trifluoromethyl)phenyl)sulfonyl)propyl)benzamide]"
20,5.09,"CC(C)(CNC(=O)c1ccc(S(C)(=O)=O)cc1)S(=O)(=O)c1cccc(C(F)(F)F)c1 [Compound 171, N-(2-methyl-2-((3-(trifluoromethyl)phenyl)sulfonyl)propyl)-4-(methylsulfonyl)benzamide]"
21,5.66,"Cc1nc(C(F)(F)F)ccc1C(=O)NCC(C)(C)S(=O)(=O)c1cccc(C(F)(F)F)c1 [Compound 172, 2-methyl-N-(2-methyl-2-((3-(trifluoromethyl)phenyl)sulfonyl)propyl)-6-(trifluoromethyl)nicotinamide]"
22,5.04,"Cc1cncc(C(=O)NCC(C)(C)S(=O)(=O)c2cccc(C(F)(F)F)c2)c1 [Compound 173, 5-methyl-N-(2-methyl-2-((3-(trifluoromethyl)phenyl)sulfonyl)propyl)nicotinamide]"

row,SMILES,pIC50
1,"CC(C)(C)Oc1ccc(CNC(=O)C(C)(C)S(=O)(=O)c2cccc(C(F)(F)F)c2)cc1 [Compound 144, N-(4-(tert-butoxy)benzyl)-2-methyl-2-((3-(trifluoromethyl)phenyl)sulfonyl)propanamide]",6.44
